These results are taken from patent publication US20250386827A1, “PESTICIDES WITH METAL NANOPARTICLE AND CELLULOSIC NANOMATERIAL COMPLEX” (NDSU Research Foundation, priority 2024, published 2025).

Structures are written as SMILES.

The test system of one data set is wheat leaf surface. The data set is described as follows: Contact angle and solid-liquid adhesion energy on wheat leaf surface. In kind it is physicochemical. As to conditions: 100 mg/mL. On the procedure:
(§1) Surface Adhesion Properties. The contact angle (θc) of the complexation solution on the wheat leaf surface and the surface tension at the liquid-vapor interface (γLV) were measured using a KRUSS (Model: DSA1005, Serial: 30009734, Germany) drop-shape analyzer. The wheat leaf was taped on the sample stage to prepare a flat and level surface for the measurement. […] KRUSS software tracked the surface of the droplet with respect to the leaf surface baseline and calculated the contact angle (θC). Surface tension γLv of the droplet (largest droplet formation at syringe nozzle just before dripping from the nozzle) was measured using a KRUSS drop shape analyzer (pendant needle was used, diameter 1.8 mm). The solid-liquid adhesion energy per unit area (δWSLV) of the droplet was calculated using the following Young-Dupré equation (1): [formula]

Data set [1] in a line: Surface tension of droplet (pendant drop, drop-shape analyzer). It counts as physicochemical. As to conditions: 100 mg/mL in water. On the procedure: as §1, with “[formula]” left out

On to `O.O.O.O.O.O=S(=O)([O-])[O-].[Cu+2]` [CuSO4, copper (II) sulfate pentahydrate], for which the contact angle in the data set on wheat leaf surface is on record as 125.2 °. The molecule further gave a surface adhesion energy with wheat leaf surface (Young-Dupré equation) of 24.17 mM/m. For the same molecule, the surface tension in data set [1] was 57.46 mM/m.
